Results as given in PMC7487730, “Design, synthesis and biological evaluation of novel benzodioxole derivatives as COX inhibitors and cytotoxic agents” (BMC Chemistry, 2020).
Read-outs that look alike come from different tables or passages of the source.

How the values were obtained:
[1] = target: T1, human recombinant COX2 (Homo sapiens, UniProt P35354); experiment: COX inhibitor screening assay kit (Cayman No. 560131), COX2; type: biochemical; details: for COX1/COX2 Ratio Selectivity: ratio of IC50 COX1 to IC50 COX2; for IC50: run in duplicate with three concentrations (50, 20, and 5 µM)
T1 construct: purchased Cayman Chemical 560131 (kit)
T1 sequence (P35354 18-604): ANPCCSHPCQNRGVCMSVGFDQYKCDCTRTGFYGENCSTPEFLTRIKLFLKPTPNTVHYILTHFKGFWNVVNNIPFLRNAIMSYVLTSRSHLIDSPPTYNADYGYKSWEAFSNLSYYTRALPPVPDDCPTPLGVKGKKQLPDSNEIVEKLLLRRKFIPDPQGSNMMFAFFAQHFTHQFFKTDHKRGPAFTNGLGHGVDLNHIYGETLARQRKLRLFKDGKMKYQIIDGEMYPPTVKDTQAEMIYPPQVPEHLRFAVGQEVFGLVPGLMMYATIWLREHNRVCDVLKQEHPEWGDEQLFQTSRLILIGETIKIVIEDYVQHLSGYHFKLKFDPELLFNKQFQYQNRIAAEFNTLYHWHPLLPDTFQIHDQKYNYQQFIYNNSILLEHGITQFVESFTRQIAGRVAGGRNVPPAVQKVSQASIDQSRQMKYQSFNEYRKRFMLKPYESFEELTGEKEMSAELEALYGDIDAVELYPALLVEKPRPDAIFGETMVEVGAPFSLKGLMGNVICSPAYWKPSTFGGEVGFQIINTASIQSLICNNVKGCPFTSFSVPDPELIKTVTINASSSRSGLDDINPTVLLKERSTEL

[2] = MTS cytotoxicity assay on HeLa cells; type: cell-based; details: human
Description: An MTS assay was used to determine the cytotoxic effect of Benzodioxole derivatives on HeLa (cervical carcinoma cells).
All chemicals were purchased from Sigma-Aldrich and Alfa Aesar. Melting points were determined with an SMP-II Digital Melting Point Apparatus and are uncorrected. IR spectra were obtained using a Perkin Elmer Spectrum 400 FTIR/FTNIR spectrometer. ^1H-NMR and ^13C-NMR spectra were recorded in DMSO-d6 and were performed on two NMR instruments. The first was a Bruker 500 MHz-Avance III High-Performance Digital FT-NMR spectrometer at the Faculty of Science, Department of Chemistry, The University of Jordan, Jordan (it was used for the ^1H-NMR of just one compound, 3e). The second was a Bruker 300 MHz-Avance III High-Performance Digital FT-NMR spectrometer at the NMR facility at the Doping and Narcotics Analysis Laboratory of the faculty of pharmacy, Anadolu University, Turkey (it was used for both ^1H-NMR and ^13C-NMR for the other compounds). Tetramethylsilane was used as the internal standard. All chemical shifts were recorded as d (ppm). […] The yellow product of this enzymatic reaction was determined using a UV spectrophotometer with a Microplate Reader (BioRad, Japan) at a wavelength of 415 nm. HeLa Cervical Carcinoma cell line was purchased from ATCC (ATCC® CCL-2™), and the cyototoxicty test of the cell viability was assessed by the CellTilter 96® Aqueous One Solution Cell Proliferation (MTS) assay according to the manufacturer’s instructions (Promega Corporation, Madison, WI) (Additional file 1).
HeLa Cervical Carcinoma was cultured in RPMI-1640 media and supplemented with 10% fetal bovine serum, 1% penicillin/streptomycin antibiotics and 1% L-glutamine. Cells were grown in a humidified atmosphere with 5% CO2 at 37 °C, and they were seeded in 2.6 × 10^4 cells/well in a 96-well plate. After 48 h, the cells were confluent, the media was changed, and cells were incubated with four concentrations (2, 1, 0.5, and 0.2 mM) of the tested compounds for 24 h. Cell viability was assessed by the CellTilter 96® Aqueous One Solution Cell Proliferation (MTS) Assay according to the manufacturer’s instructions (Promega Corporation, Madison, WI). Briefly, at the end of the treatment, 20 μL of MTS solution per 100 μL of media was added to each well and incubated at 37 °C for 2 h. Absorbance was measured at 490 nm.

[3] = target: T2, ovine COX1 (Ovis aries, UniProt P05979); experiment: COX inhibitor screening assay kit (Cayman No. 560131), COX1; type: biochemical
T2 construct: purchased Cayman Chemical 560131 (kit)
T2 sequence (P05979 25-600): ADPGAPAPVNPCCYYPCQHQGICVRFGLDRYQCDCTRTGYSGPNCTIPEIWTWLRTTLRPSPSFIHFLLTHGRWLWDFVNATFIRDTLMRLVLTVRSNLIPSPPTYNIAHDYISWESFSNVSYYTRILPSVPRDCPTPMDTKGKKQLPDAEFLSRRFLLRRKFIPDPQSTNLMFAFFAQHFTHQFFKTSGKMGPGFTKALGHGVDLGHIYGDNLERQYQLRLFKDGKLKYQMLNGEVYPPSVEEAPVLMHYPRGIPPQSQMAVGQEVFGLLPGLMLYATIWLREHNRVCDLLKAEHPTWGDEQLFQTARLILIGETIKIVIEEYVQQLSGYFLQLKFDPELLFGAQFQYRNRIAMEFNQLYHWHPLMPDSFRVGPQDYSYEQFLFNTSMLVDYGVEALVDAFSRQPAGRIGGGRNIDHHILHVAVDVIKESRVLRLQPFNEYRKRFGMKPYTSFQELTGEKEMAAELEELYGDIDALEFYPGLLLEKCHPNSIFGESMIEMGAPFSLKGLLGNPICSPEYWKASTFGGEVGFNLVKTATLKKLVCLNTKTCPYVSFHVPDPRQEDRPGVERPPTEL
Description: All chemicals were purchased from Sigma-Aldrich and Alfa Aesar. Melting points were determined with an SMP-II Digital Melting Point Apparatus and are uncorrected. IR spectra were obtained using a Perkin Elmer Spectrum 400 FTIR/FTNIR spectrometer. ^1H-NMR and ^13C-NMR spectra were recorded in DMSO-d6 and were performed on two NMR instruments. […] The second was a Bruker 300 MHz-Avance III High-Performance Digital FT-NMR spectrometer at the NMR facility at the Doping and Narcotics Analysis Laboratory of the faculty of pharmacy, Anadolu University, Turkey (it was used for both ^1H-NMR and ^13C-NMR for the other compounds). Tetramethylsilane was used as the internal standard. All chemical shifts were recorded as d (ppm). […] HeLa Cervical Carcinoma cell line was purchased from ATCC (ATCC® CCL-2™), and the cyototoxicty test of the cell viability was assessed by the CellTilter 96® Aqueous One Solution Cell Proliferation (MTS) assay according to the manufacturer’s instructions (Promega Corporation, Madison, WI) (Additional file 1).
The assay was run in duplicate with three concentrations (50, 20, and 5 µM). […] The percentage inhibition of the three concentrations was used to calculate the IC50 [16].

[4] = HeLa cervical carcinoma cells (ATCC CCL-2), HeLa, 24 h incubation, MTS, read-out: HeLa Cell CC50 in milli-molar
[5] = run in duplicate with three concentrations (50, 20, and 5 µM), read-out: The IC50 in µM of COX1

| Compound | COX1/COX2 Ratio Selectivity [1] | IC50 [1] | CC50 at 24 h [2, 4] | melting point | IC50 [3, 5] | CC50 at 24 h [2] | IC50 ([3]; The IC50 in µM of COX1, run in duplicate with three concentrations (50, 20, and 5 µM)) |
| --- | --- | --- | --- | --- | --- | --- | --- |
| COC(=O)Cc1cc2c(cc1C(=O)c1ccccc1Br)OCO2 [3d, Methyl 2-(6-(2-bromobenzoyl)benzo[d][1,3]dioxol-5-yl)acetate] | 0.897 | 1.45 µM | 1610 µM | 85 to 87 °C |  |  |  |
| O=C(O)Cc1cc2c(cc1C(=O)c1ccc(Cl)cc1Cl)OCO2 [4f, 2-(6-(2,4-dichlorobenzoyl)benzo[d][1,3]dioxol-5-yl)acetic acid] | 0.169 | 4.29 µM | 1020 µM | 168.5 to 170 °C | 0.725 µM |  |  |
| COC(=O)Cc1cc2c(cc1C(=O)c1ccc(Cl)cc1Cl)OCO2 [3f, Methyl 2-(6-(2,4-dichlorobenzoyl)benzo[d][1, 3]dioxol-5-yl)acetate] |  |  |  | 95 to 97 °C |  |  |  |
| O=C(O)Cc1cc2c(cc1C(=O)c1ccccc1)OCO2 [4a, 2-(6-benzoylbenzo[d][1,3]dioxol-5-yl)acetic acid] | 0.434 | 3.34 µM | 1940 µM | 184.5 to 186.5 °C | 1.45 µM |  |  |
| O=C(O)Cc1cc2c(cc1C(=O)c1ccccc1Br)OCO2 [4d, 2-(6-(2-bromobenzoyl)benzo[d][1,3]dioxol-5-yl)acetic acid] | 1.809 | 2.35 µM | 547 µM | 145 to 147 °C | 4.25 µM |  |  |
| O=C(O)Cc1cc2c(cc1C(=O)c1ccccc1I)OCO2 [4b, 2-(6-(2-iodobenzoyl)benzo[d][1,3]dioxol-5-yl)acetic acid] | 0.250 | 30.7 µM | 697 µM | 147 to 149 °C | 7.67 µM |  |  |
| COC(=O)Cc1cc2c(cc1C(=O)c1cccc(Br)c1)OCO2 [3e, Methyl 2-(6-(3-bromobenzoyl)benzo[d][1, 3]dioxol-5-yl)acetate] | 0.864 | 2.73 µM |  | 72.5 to 74.5 °C | 2.36 µM | 219 µM |  |
| COC(=O)Cc1cc2c(cc1C(=O)c1ccccc1I)OCO2 [3b, Methyl 2-(6-(2-iodobenzoyl)benzo[d][1,3]dioxol-5-yl)acetate] | 0.862 | 1.3 µM | 228 µM |  | 1.12 µM |  |  |
| COC(=O)Cc1cc2c(cc1C(=O)c1ccc(I)cc1)OCO2 [3c, Methyl 2-(6-(4-iodobenzoyl)benzo[d][1,3]dioxol-5-yl)acetate] | 0.723 | 37.5 µM | 1790 µM | 119 to 121 °C | 27.1 µM |  |  |
| O=C(O)Cc1cc2c(cc1C(=O)c1cccc(Br)c1)OCO2 [4e, 2-(6-(3-bromobenzoyl)benzo[d][1, 3]dioxol-5-yl)acetic acid] | 0.144 | 49.3 µM | 437 µM | 154 to 156 °C | 7.11 µM |  |  |
| CC(C(=O)O)c1cccc(C(=O)c2ccccc2)c1 (stereo not drawn) [Ketoprofen, reference compound] |  |  |  |  |  |  | 0.031 µM |
| O=C(O)Cc1cc2c(cc1C(=O)c1ccc(I)cc1)OCO2 [4c, 2-(6-(4-iodobenzoyl)benzo[d][1,3]dioxol-5-yl)acetic acid] | 0.861 | 39.1 µM | 1050 µM | 239.5 to 241.5 °C | 33.7 µM |  |  |
| COC(=O)Cc1cc2c(cc1C(=O)c1ccccc1)OCO2 [3a, Methyl 2-(6-benzoylbenzo[d][1,3]dioxol-5-yl)acetate] | 0.859 | 14.3 µM | 1490 µM |  | 12.3 µM |  |  |
